Measured values reported in patent US9764014B2, “Use of toll-like receptor ligands as adjuvants to vaccination therapy for brain tumors” (Cedars-Sinai Medical Center, priority 2008, dated 2017).

Experiments:
BMDC = experiment: IL-6, TNF-α and IL-12 ELISA of BMDC activated by GL26 lysate vs. TLR ligands; type: cell-based, C57BL/6 mice; details: FIG. 9 bottom panel, GL26 lysate plus TLR ligand
Description: Experiments were performed with at least three replicates per condition. As controls for these experiments the inventors utilized brain tissue lysate obtained from healthy C57BL/6 mice and untreated DCs. Furthermore, for each TLR ligand, the inventors utilized up to three different concentrations previously shown to activate dendritic cells in order to identify the best concentration for maximal activation of BMDC. […] However, TLR ligands alone consistently promote increases the dependent variables measured to a greater degree than TLR ligands with tumor lysate. However, it is likely that activation by TLR ligands alone would not prime T cells to be tumor antigen specific. […] Therefore, ELISA on BMDC treated with GL26 lysate and individual TLR ligands were performed as described above. […] TNF-α and IL-12 (FIG. 9).
Primary BMDCs were isolated from the femurs of 6-10 week old C57BL/6 mice and cultured in RPMI cell culture media with GM-CSF (1000 IU/ML) and IL-4 (1000 IU/ML). BMDCs (1×10^6 cells/ml) were maintained in cell culture at 37° C., 5% CO2 and exposed to with […] GL26 freeze-thaw lysate and either TLR2 ligand (Pam3Cys, 50 μg/ml), TLR4 ligand (LPS 50 ng/ml), or TLR9 ligand (CpG ODN 1826, 5 μM) overnight (ON). Control cells were treated with […] GL26 freeze-thaw lysate only. […]

primary BMDC = experiment: IL-6 ELISA from primary BMDC derived from MyD88−/− and littermate controls; type: cell-based, mice; details: MyD88−/− DC compared to BMDC from wild-type littermate controls; LPS 100 ng/ml or 10 ng/ml with GL26 lysate
Description: Briefly, BMDCs were cultured in 24-well plates at 3×10^5 cells/ml and exposed to TLR ligands and lysate for 24 hours. Cell culture media were collected for ELISA analysis against IL-6, TNF-α and IL-12. Three independent experiments with at least three replicates per experiment were performed.
While the inventors provide evidence that GL26 tumor cells and TLR ligands activate primary BMDC. […] It is possible that the GL26 tumor cell activation is signaling through TLRs or at least through downstream signaling molecule MyD88. Therefore, primary dendritic cells from MyD88−/− and Wild-type controls were isolated and exposed to GL26 lysate and TLR ligand LPS at 100 ng/ml or 10 ng/ml. The inventors believe that LPS activation in MyD88−/− DC will not show up-regulation of secreted IL-6 protein as measured by ELISA. […] Furthermore, no significant difference exists between MyD88−/− and wild-type derived BMDC exposed to brain lysate (FIG. 10).
Primary BMDCs were isolated from the bone marrow of femurs of euthanized MyD88−/− and their +/+ littermate controls as described above. BMDCs were activated using 1) GL26 tumor lysate alone; 2) TLR ligands (Pam3cys (50 μg/ml) or LPS (50 ng/ml) or CpG ODN (5 μM) and tumor lysate for each; 3) Treatment of DCs with brain lysate alone may also serves as a control condition.

[1] = test system: primary dendritic cells from MyD88−/− and wild-type controls; experiment: ELISA for TNF-alpha in primary DC treated with LPS; type: cell-based, mice
From the text: While the inventors provide evidence that GL26 tumor cells and TLR ligands activate DC2.4 cells, it is unknown if GL26 lysate activation is signaling through MyD88−/− and/or TRIF dependent pathways. It is possible that the GL26 tumor cell activation is signaling through TLRs or at least through downstream signaling molecules MyD88 and/or TRIF. Therefore, the inventors isolated primary dendritic cells from MyD88−/− and wild-type controls and exposed them to GL26 lysate and TLR ligand LPS. The inventors believe that LPS activation in MyD88−/− DC will not show up-regulation of TNF-alpha protein as measured by ELISA.

Row | Substance | IL-12 protein production (BMDC) | IL-6 secreted protein levels by ELISA (primary BMDC) | TNF-alpha protein by ELISA ([1]; MyD88−/− DC) | TNF-alpha protein by ELISA ([1]; wild-type DCs, compared to controls)
1 | Pam3cys | relatively limited increases |  |  | 
2 | lipopolysaccharide [LPS] |  | reduced | no up-regulation | significant up-regulations
